Values of other authors, collected in patent EP4659595A1, “NICOTINE-POLYMER COMPLEX COMPRISING MULTIPLE NICOTINE FORMS” (Nicoventures Trading Limited, priority 2024, dated 2025).

Tests used:
[1] = fats, alcohols, water
[2] = when isolated; converts via isomerization into trans-bixin (β-bixin)
[3] = partition coefficient between octanol and water; source of values not stated

Row | Molecule | solubility [1] | chemical stability [2] | logP [3]
1 | CC(/C=C/C=C(C)/C=C/C(=O)O)=C\C=C\C=C(C)\C=C\C=C(C)\C=C\C(=O)O (stereo in doubt) [norbixin, (2E,4E,6E,8E,10E,12E,14E,16E,18E)-4,8,13,17-tetramethylicosa-2,4,6,8,10,12,14,16,18-nonaenedioic acid] | water soluble | – | –
2 | COC(=O)/C=C/C(C)=C\C=C\C(C)=C\C=C\C=C(C)\C=C\C=C(C)\C=C\C(=O)O [bixin, (2E,4E,6E,8E,10E,12E,14E,16Z,18E)-20-methoxy-4,8,13,17-tetramethyl-20-oxoicosa-2,4,6,8,10,12,14,16,18-nonaenoic acid] | soluble in fats and alcohols but insoluble in water | chemically unstable when isolated | –
3 | CC(C)[C@@H]1CC[C@@H](C)C[C@H]1OC(=O)CCC(=O)O [monomenthyl succinate] | – | – | 3
4 | ethyl benzoic acid | – | – | 2.9
5 | isopropyl benzoic acid | – | – | 3.5
6 | tocopherol succinate | – | – | 10.2
